Laboratory results taken from patent publication US20240343733A1, “COMPOUNDS FOR TARGETING DEGRADATION OF IRAK4 PROTEINS” (BIOGEN MA INC., priority 2021, published 2024).

What follows are compounds tested against T1, IRAK4 (Homo sapiens, UniProt Q9NWZ3) (assay: IRAK4 Degradation Assay, HiBiT Method). Conditions: 293T cells expressing HiBiT-tagged IRAK4, 6 hours.
T1 construct: 293Tcells expressing HiBiT-tagged IRAK4 were then added into 384-well plates
T1 sequence (Q9NWZ3 1-460): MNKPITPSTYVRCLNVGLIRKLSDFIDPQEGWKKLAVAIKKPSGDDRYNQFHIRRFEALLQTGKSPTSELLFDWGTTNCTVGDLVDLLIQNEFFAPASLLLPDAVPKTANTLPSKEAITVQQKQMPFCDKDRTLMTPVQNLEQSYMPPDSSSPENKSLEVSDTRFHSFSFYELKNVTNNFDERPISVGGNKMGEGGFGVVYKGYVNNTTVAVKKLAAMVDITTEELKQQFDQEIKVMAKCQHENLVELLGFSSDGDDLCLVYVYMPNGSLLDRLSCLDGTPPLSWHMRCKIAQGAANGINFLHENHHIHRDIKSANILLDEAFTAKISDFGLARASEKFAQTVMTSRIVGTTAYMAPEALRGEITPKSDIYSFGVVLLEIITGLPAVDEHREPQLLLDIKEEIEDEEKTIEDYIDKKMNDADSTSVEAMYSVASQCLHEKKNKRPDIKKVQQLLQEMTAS
Format: cell-based
Description: Assay 1. IRAK4 Degradation Assay, HiBiT Method
Selected compounds were tested in an IRAK4 degradation assay using the HiBiT Method.
Phenol red-free Dulbecco's modified Eagle medium (DMEM) and fetal bovine serum (FBS) were purchased from Gibco (Grand Island, NY, USA). The Nano-Glo® HiBiT Lytic Assay System was purchased from Promega (Madison, WI, USA). Cell culture flasks and 384-well microplates were acquired from VWR (Radnor, PA, USA). The 293Tcell line was engineered by knocking-in a HiBiT fusion tag into the C-terminal of the IRAK4 gene in 293T cells (Synthego, Redwood City, CA, USA).
IRAK4 degradation was measured via the quantification of luminescent signals using the Nano-Glo® HiBiT Lytic Assay kit. Test compounds were added to 384-well plates in duplicate using an 11-point half-log dilution series, with the highest dose set at […]. 293Tcells expressing HiBiT-tagged IRAK4 were then added into 384-well plates at a cell density of 10,000 cells per well. The plates were kept at 37° C. with 5% CO2 for 6 hours. Cells that were treated only with DMSO served as the negative control; wells that contained only assay media served as the background control. After the 6-hour incubation, Nano-Glo® HiBiT Lytic Assay reagents were added to the cells. Luminescence was acquired using an EnVision™ Multilabel Reader (PerkinElmer, Santa Clara, CA, USA).

Row | Compound | DC50 [nM]
1 | CC(C)Oc1cc2nc([C@H]3CC[C@H](CN(C)C4CCN(c5ccc(NC6CCC(=O)NC6=O)cc5)CC4)CC3)cn2cc1C(=O)Nc1cccc(C(F)F)n1 (stereo partly drawn) [Example 20, N-[6-(difluoromethyl)-2-pyridyl]-2-[4-[[[1-[4-[(2,6-dioxo-3-piperidyl)amino]phenyl]-4-piperidyl]-methyl-amino]methyl]cyclohexyl]-7-isopropoxy-imidazo[1,2-a]pyridine-6-carboxamide] | 10 to 100
2 | CC(C)Oc1cc2nc([C@H]3CC[C@H](CN(C)C4CCN(c5cccc6c5n(C)c(=O)n6C5CCC(=O)NC5=O)CC4)CC3)cn2cc1C(=O)Nc1cccc(C(F)F)n1 (stereo partly drawn) [Example 21, N-[6-(difluoromethyl)-2-pyridyl]-2-[4-[[[1-[1-(2,6-dioxo-3-piperidyl)-3-methyl-2-oxo-benzimidazol-4-yl]-4-piperidyl]-methyl-amino]methyl]cyclohexyl]-7-isopropoxy-imidazo[1,2-a]pyridine-6-carboxamide] | 10 to 100
3 | CC(C)Oc1cc2nc([C@H]3CC[C@H](CN(C)C4CCN(c5cccc(NC6CCC(=O)NC6=O)c5)CC4)CC3)cn2cc1C(=O)Nc1cccc(C(F)F)n1 (stereo partly drawn) [Example 24, N-[6-(difluoromethyl)-2-pyridyl]-2-[4-[[[1-[3-[(2,6-dioxo-3-piperidyl)amino]phenyl]-4-piperidyl]-methyl-amino]methyl]cyclohexyl]-7-isopropoxy-imidazo[1,2-a]pyridine-6-carboxamide] | 10 to 100
4 | CC(C)Oc1cc2nc([C@H]3CC[C@H](CN(C)C4CCN(c5ccc6c(c5)n(C)c(=O)n6C5CCC(=O)NC5=O)CC4)CC3)cn2cc1C(=O)Nc1cccc(C(F)F)n1 (stereo partly drawn) [Example 27, N-[6-(difluoromethyl)-2-pyridyl]-2-[4-[[[1-[1-(2,6-dioxo-3-piperidyl)-3-methyl-2-oxo-benzimidazol-5-yl]-4-piperidyl]-methyl-amino]methyl]cyclohexyl]-7-isopropoxy-imidazo[1,2-a]pyridine-6-carboxamide] | 10 to 100
5 | CC(C)Oc1cc2nc([C@H]3CC[C@H](CN(C)C4CCN(Cc5cccc(NC6CCC(=O)NC6=O)c5)CC4)CC3)cn2cc1C(=O)Nc1cccc(C(F)F)n1 (stereo partly drawn) [Example 34, N-[6-(difluoromethyl)-2-pyridyl]-2-[4-[[[1-[[3-[(2,6-dioxo-3-piperidyl)amino]phenyl]methyl]-4-piperidyl]-methyl-amino]methyl]cyclohexyl]-7-isopropoxy-imidazo[1,2-a]pyridine-6-carboxamide] | 100 to 500
6 | CC(C)Oc1cc2nc([C@H]3CC[C@H](CN4CCC(c5ccc(NC6CCC(=O)NC6=O)cn5)CC4)CC3)cn2cc1C(=O)Nc1cccc(C(F)F)n1 (stereo partly drawn) [Example 35, N-[6-(difluoromethyl)-2-pyridyl]-2-[4-[[4-[5-[(2,6-dioxo-3-piperidyl)amino]-2-pyridyl]-1-piperidyl]methyl]cyclohexyl]-7-isopropoxy-imidazo[1,2-a]pyridine-6-carboxamide] | 10 to 100
7 | CC(C)Oc1cc2nc([C@H]3CC[C@H](CN4CCC(c5ccc(NC6CCC(=O)NC6=O)cc5)C(F)(F)C4)CC3)cn2cc1C(=O)Nc1cccc(C(F)F)n1 (stereo partly drawn) [Example 36, N-[6-(difluoromethyl)-2-pyridyl]-2-[4-[[4-[4-[(2,6-dioxo-3-piperidyl)amino]phenyl]-3,3-difluoro-1-piperidyl]methyl]cyclohexyl]-7-isopropoxy-imidazo[1,2-a]pyridine-6-carboxamide] | 100 to 500
8 | CC(C)Oc1cc2nc([C@H]3CC[C@H](CN4CCC(c5ccc(N6CCC(=O)NC6=O)cc5)CC4)CC3)cn2cc1C(=O)Nc1cccc(C(F)F)n1 [Example 39, N-[6-(difluoromethyl)-2-pyridyl]-2-[4-[[4-[4-(2,4-dioxohexahydropyrimidin-1-yl)phenyl]-1-piperidyl]methyl]cyclohexyl]-7-isopropoxy-imidazo[1,2-a]pyridine-6-carboxamide] | 10 to 100

Continued, values first:

Row | DC50 [nM] | Compound
9 | < 10 | CC(C)Oc1cc2nc([C@H]3CC[C@H](CN4CCC(c5ccc6c(c5)n(C)c(=O)n6C5CCC(=O)NC5=O)CC4)CC3)cn2cc1C(=O)Nc1cccc(C(F)F)n1 (stereo partly drawn) [Example 19, N-[6-(difluoromethyl)-2-pyridyl]-2-[4-[[4-[1-(2,6-dioxo-3-piperidyl)-3-methyl-2-oxo-benzimidazol-5-yl]-1-piperidyl]methyl]cyclohexyl]-7-isopropoxy-imidazo[1,2-a]pyridine-6-carboxamide]
10 | 10 to 100 | CC(C)Oc1cc2nc([C@H]3CC[C@H](CN4CCC(c5cccc(NC6CCC(=O)NC6=O)c5F)CC4)CC3)cn2cc1C(=O)Nc1cccc(C(F)F)n1 (stereo partly drawn) [Example 22, N-[6-(difluoromethyl)-2-pyridyl]-2-[4-[[4-[3-[(2,6-dioxo-3-piperidyl)amino]-2-fluoro-phenyl]-1-piperidyl]methyl]cyclohexyl]-7-isopropoxy-imidazo[1,2-a]pyridine-6-carboxamide]
11 | 100 to 500 | CC(C)Oc1cc2nc([C@H]3CC[C@H](CN4CCC(c5ccc(C6CCC(=O)NC6=O)cc5)C(F)(F)C4)CC3)cn2cc1C(=O)Nc1cccc(C(F)F)n1 (stereo partly drawn) [Example 25, N-[6-(difluoromethyl)-2-pyridyl]-2-[4-[[4-[4-(2,6-dioxo-3-piperidyl)phenyl]-3,3-difluoro-1-piperidyl]methyl]cyclohexyl]-7-isopropoxy-imidazo[1,2-a]pyridine-6-carboxamide]
12 | 100 to 500 | CC(C)Oc1cc2nc([C@H]3CC[C@H](CN4CCC(c5cccc(NC6CCC(=O)NC6=O)c5)CC4)CC3)cn2cc1C(=O)Nc1cccc(C(F)F)n1 (stereo partly drawn) [Example 26, N-[6-(difluoromethyl)-2-pyridyl]-2-[4-[[4-[3-[(2,6-dioxo-3-piperidyl)amino]phenyl]-1-piperidyl]methyl]cyclohexyl]-7-isopropoxy-imidazo[1,2-a]pyridine-6-carboxamide]
13 | 10 to 100 | CC(C)Oc1cc2nc([C@H]3CC[C@H](CN(C)C4CCN(c5cccc(C6CCC(=O)NC6=O)c5)CC4)CC3)cn2cc1C(=O)Nc1cccc(C(F)F)n1 (stereo partly drawn) [Example 28, N-[6-(difluoromethyl)-2-pyridyl]-2-[4-[[[1-[3-(2,6-dioxo-3-piperidyl)phenyl]-4-piperidyl]-methyl-amino]methyl]cyclohexyl]-7-isopropoxy-imidazo[1,2-a]pyridine-6-carboxamide]
14 | 10 to 100 | CC(C)Oc1cc2nc([C@H]3CC[C@H](CN4CCC(c5ccc6c(c5)n(C)c(=O)n6C5CCC(=O)NC5=O)C(F)(F)C4)CC3)cn2cc1C(=O)Nc1cccc(C(F)F)n1 (stereo partly drawn) [Example 29, N-[6-(difluoromethyl)-2-pyridyl]-2-[4-[[4-[1-(2,6-dioxo-3-piperidyl)-3-methyl-2-oxo-benzimidazol-5-yl]-3,3-difluoro-1-piperidyl]methyl]cyclohexyl]-7-isopropoxy-imidazo[1,2-a]pyridine-6-carboxamide]
15 | < 10 | CC(C)Oc1cc2nc([C@H]3CC[C@H](CN(C)C4CCN(c5ccc(C6CCC(=O)NC6=O)cc5)CC4)CC3)cn2cc1C(=O)Nc1cccc(C(F)F)n1 (stereo partly drawn) [Example 30, N-[6-(difluoromethyl)-2-pyridyl]-2-[4-[[[1-[4-(2,6-dioxo-3-piperidyl)phenyl]-4-piperidyl]-methyl-amino]methyl]cyclohexyl]-7-isopropoxy-imidazo[1,2-a]pyridine-6-carboxamide]
16 | 100 to 500 | CC(C)Oc1cc2nc([C@H]3CC[C@H](CN(C)C4CCN(Cc5ccc(NC6CCC(=O)NC6=O)cc5)CC4)CC3)cn2cc1C(=O)Nc1cccc(C(F)F)n1 (stereo partly drawn) [Example 32, N-[6-(difluoromethyl)-2-pyridyl]-2-[4-[[[1-[[4-[(2,6-dioxo-3-piperidyl)amino]phenyl]methyl]-4-piperidyl]-methyl-amino]methyl]cyclohexyl]-7-isopropoxy-imidazo[1,2-a]pyridine-6-carboxamide]
17 | 100 to 500 | CC(C)Oc1cc2nc([C@H]3CC[C@H](CN4CCC(c5cc6c(cc5F)c(N5CCC(=O)NC5=O)nn6C)C(F)(F)C4)CC3)cn2cc1C(=O)Nc1cccc(C(F)F)n1 (stereo partly drawn) [Example 33, N-[6-(difluoromethyl)-2-pyridyl]-2-[4-[[4-[3-(2,4-dioxohexahydropyrimidin-1-yl)-5-fluoro-1-methyl-indazol-6-yl]-3,3-difluoro-1-piperidyl]methyl]cyclohexyl]-7-isopropoxy-imidazo[1,2-a]pyridine-6-carboxamide]
18 | 10 to 100 | CC(C)Oc1cc2nc([C@H]3CC[C@H](CN4CCC(c5ccc(CN6CCC(=O)NC6=O)cc5)CC4)CC3)cn2cc1C(=O)Nc1cccc(C(F)F)n1 [Example 37, N-[6-(difluoromethyl)-2-pyridyl]-2-[4-[[4-[4-[(2,4-dioxohexahydropyrimidin-1-yl)methyl]phenyl]-1-piperidyl]methyl]cyclohexyl]-7-isopropoxy-imidazo[1,2-a]pyridine-6-carboxamide]
